These results are taken from a polymer gas permeability compilation.

In turn, `*c1ccc(Oc2ccc(-c3cccc(-c4ccc(Oc5ccc(N6C(=O)c7ccc(C(c8ccc9c(c8)C(=O)N(*)C9=O)(C(F)(F)F)C(F)(F)F)cc7C6=O)cc5)c(C(F)(F)F)c4)n3)cc2C(F)(F)F)cc1` (repeat unit) registered a CH4 permeability of 1.95 Barrer, a CO2 permeability of 51.9 Barrer, an N2 permeability of 1.91 Barrer and an O2 permeability of 12.2 Barrer.

In turn, `*c1ccc2c(c1)-c1nc3ccc(-c4ccc5c(c4)nc4n5C(=O)c5cc(C(c6ccc(-c7nc8cc(C(c9ccc%10oc(-c%11ccc(C(*)(C(F)(F)F)C(F)(F)F)cc%11)nc%10c9)(C(F)(F)F)C(F)(F)F)ccc8o7)cc6)(C(F)(F)F)C(F)(F)F)ccc5-4)cc3n1C2=O` (repeat unit) showed a CH4 permeability of 46 Barrer, a CO2 permeability of 1800 Barrer, an H2 permeability of 1990 Barrer and an N2 permeability of 85 Barrer. The O2 permeability came out at 421 Barrer.

The compound `*c1ccc(*)c(C(=O)c2ccccc2)c1` (repeat unit) returned a CH4 permeability of 0.36 Barrer, a CO2 permeability of 14.2 Barrer, an H2 permeability of 27.4 Barrer and an N2 permeability of 0.4 Barrer. The compound also displayed an O2 permeability of 2.99 Barrer.

`*c1ccc(C)c(-c2cc(C)c(-c3cc(*)ccc3C)cc2C)c1` (repeat unit) yielded a CH4 permeability of 1.9 Barrer, a CO2 permeability of 62 Barrer, an H2 permeability of 100 Barrer and an N2 permeability of 2.4 Barrer. The compound further yielded an O2 permeability of 12 Barrer.

`*c1ccc2c(c1)C(=O)N(c1ccc(Oc3ccc(N4C(=O)c5ccc(-c6nc7ccc(Cc8ccc9nc(*)oc(=O)c9c8)cc7c(=O)o6)cc5C4=O)cc3)cc1)C2=O` (repeat unit) displayed a CO2 permeability of 0.26 Barrer and an H2 permeability of 2.56 Barrer.

`*CN1CN(*)c2cc3c(cc21)C1(C)CCC3(C)c2cc(*)c(*)cc21` (repeat unit) showed a CH4 permeability of 222 Barrer, an H2 permeability of 4440 Barrer, an N2 permeability of 187 Barrer and an O2 permeability of 933 Barrer.

`*c1ccc(S(=O)(=O)c2ccc(N3C(=O)c4ccc(-c5ccc6c(c5)C(=O)N(*)C6=O)cc4C3=O)cc2)cc1` (repeat unit) returned a CH4 permeability of 0.0625 Barrer, a CO2 permeability of 2.16 Barrer, an H2 permeability of 11.3 Barrer and an N2 permeability of 0.0499 Barrer. Also, the O2 permeability amounted to 0.348 Barrer.

`*Oc1c(C)cc(*)c(C(=O)c2ccc(Cl)cc2)c1C` (repeat unit) came in with a CH4 permeability of 0.98 Barrer, a CO2 permeability of 16.8 Barrer, an N2 permeability of 1.8 Barrer and an O2 permeability of 8.6 Barrer.

`*c1ccc(Cc2ccc(N3C(=O)c4ccc(-c5ccc6c(c5)C(=O)N(*)C6=O)cc4C3=O)cc2F)c(F)c1` (repeat unit): the CH4 permeability came to 0.0129 Barrer, the CO2 permeability is 0.542 Barrer, the N2 permeability turned out to be 0.0203 Barrer and the O2 permeability turned out to be 0.143 Barrer.

For the compound `*Oc1ccc(-c2ccc(Oc3c(F)c(F)c(COC(C4CCCC(C(OCc5c(F)c(F)c(*)c(F)c5F)(C(F)(F)F)C(F)(F)F)C4)(C(F)(F)F)C(F)(F)F)c(F)c3F)cc2)cc1` (repeat unit), the CH4 permeability came out at 0.34 Barrer, the CO2 permeability was found to be 8.2 Barrer, the H2 permeability came to 20 Barrer and the N2 permeability came to 0.61 Barrer. Also, the O2 permeability was found to be 2.5 Barrer.

In turn, `*/C(C)=C(/*)[Si](C)(C)c1ccccc1` (repeat unit) gave a CH4 permeability of 1.7 Barrer, a CO2 permeability of 37.6 Barrer, an H2 permeability of 14 Barrer and an N2 permeability of 1.2 Barrer. The O2 permeability is 4.4 Barrer.

With `*c1cccc2c(-n3c(=O)c4cc5oc6cc7c(cc6oc5cc4c3=O)C3(CC(C)(C)c4cc5oc6cc8c(=O)n(*)c(=O)c8cc6oc5cc43)CC7(C)C)cccc12` (repeat unit), the CH4 permeability amounted to 27 Barrer, the CO2 permeability is 510 Barrer, the H2 permeability turned out to be 350 Barrer and the N2 permeability is 19 Barrer. The compound also registered an O2 permeability of 77 Barrer.

For `*CC(*)C#N` (repeat unit), the CO2 permeability was determined as 0.0018 Barrer, the N2 permeability is 0.00016 Barrer and the O2 permeability turned out to be 0.00028 Barrer.

As to `*Nc1ccc(Oc2ccc(Oc3ccc(NC(=O)CN4C(=O)c5ccc(C(*)=O)cc5C4=O)cc3)cc2)cc1` (repeat unit), the CH4 permeability worked out at 0.015 Barrer, the CO2 permeability is 0.749 Barrer, the N2 permeability amounted to 0.02 Barrer and the O2 permeability was 0.185 Barrer.

Compound `*c1c(C)c(C)c(N2C(=O)c3ccc(Oc4cc(C(C)(C)C)ccc4Oc4ccc5c(c4)C(=O)N(*)C5=O)cc3C2=O)c(C)c1C` (repeat unit) showed a CH4 permeability of 3.1 Barrer, a CO2 permeability of 71 Barrer, an H2 permeability of 91 Barrer and an N2 permeability of 2.55 Barrer. This compound also returned an O2 permeability of 12 Barrer.

In the case of `*CC(*)OCC1CCCCC1` (repeat unit), the CO2 permeability was 5.89 Barrer, the N2 permeability came to 0.4 Barrer and the O2 permeability was found to be 1.55 Barrer.

Turning to `*c1ccc(Oc2ccc(Oc3ccc(*)cc3)c3c2C2c4ccccc4C3c3ccccc32)cc1` (repeat unit), the CH4 permeability came to 0.21 Barrer, the CO2 permeability worked out at 13.5 Barrer, the N2 permeability was 0.58 Barrer and the O2 permeability is 3.4 Barrer.

In turn, `*C[Si](*)(C)C` (repeat unit) returned a CH4 permeability of 130 Barrer, a CO2 permeability of 549 Barrer, an N2 permeability of 38 Barrer and an O2 permeability of 99 Barrer.

As for `*C(=C(*)c1ccc2c(c1)C(C)(C)c1ccccc1-2)c1ccc(C(C)(C)C)cc1` (repeat unit), the CH4 permeability stood at 6600 Barrer, the CO2 permeability stood at 11000 Barrer, the H2 permeability was found to be 6300 Barrer and the N2 permeability is 2500 Barrer. In addition, the O2 permeability worked out at 3500 Barrer.

Consider `*c1cc(C(c2ccc(O)c(N3C(=O)c4cc5c(cc4C3=O)C3(C)c4ccccc4C5(C)c4cc5c(cc43)C(=O)N(*)C5=O)c2)(C(F)(F)F)C(F)(F)F)ccc1O` (repeat unit), for which the CH4 permeability came to 0.565 Barrer, the CO2 permeability was found to be 35 Barrer, the H2 permeability worked out at 83.5 Barrer and the N2 permeability came out at 1.2 Barrer. The compound further yielded an O2 permeability of 7.45 Barrer.

The compound `*C(=C(*)c1ccc2c(ccc3ccccc32)c1)c1ccccc1` (repeat unit) returned a CH4 permeability of 1450 Barrer, a CO2 permeability of 5300 Barrer, an H2 permeability of 2500 Barrer and an N2 permeability of 650 Barrer. The compound further yielded an O2 permeability of 1300 Barrer.

In turn, `*CC(*)OC(=O)c1cccc(C)c1` (repeat unit) registered a CH4 permeability of 0.118 Barrer, a CO2 permeability of 2.13 Barrer, an N2 permeability of 0.0875 Barrer and an O2 permeability of 0.496 Barrer.

With `*CC(*)O` (repeat unit), the CO2 permeability stood at 1.2e-06 Barrer and the O2 permeability turned out to be 7e-07 Barrer.

`*CC(*)OC(=O)c1ccccc1C` (repeat unit) came in with a CH4 permeability of 0.115 Barrer, a CO2 permeability of 2.23 Barrer, an N2 permeability of 0.0859 Barrer and an O2 permeability of 0.47 Barrer.

The compound `*C(C)=C(*)CCCCCC` (repeat unit) returned a CH4 permeability of 64 Barrer, a CO2 permeability of 230 Barrer, an H2 permeability of 140 Barrer and an N2 permeability of 23 Barrer. Further, the O2 permeability amounted to 60 Barrer.

Take `*Oc1ccc(S(=O)(=O)c2ccc(Oc3ccc4ccc(*)cc4c3)cc2)cc1` (repeat unit): the CH4 permeability was 0.05 Barrer, the CO2 permeability amounted to 1.8 Barrer, the H2 permeability was 8.15 Barrer and the N2 permeability was 0.0735 Barrer. This compound also displayed an O2 permeability of 0.5 Barrer.

In the case of `*c1ccc(C2(c3ccc(*)cc3)OC(=O)c3ccccc32)cc1` (repeat unit), the CH4 permeability turned out to be 2.88 Barrer, the CO2 permeability came to 72 Barrer, the H2 permeability is 74 Barrer and the N2 permeability is 2.39 Barrer. The compound further gave an O2 permeability of 11 Barrer.

As for `*CC(*)(C)C(=O)OC(C)(C)C` (repeat unit), the CH4 permeability worked out at 0.719 Barrer, the CO2 permeability was found to be 15.1 Barrer, the H2 permeability was found to be 62.2 Barrer and the N2 permeability amounted to 0.768 Barrer. For the same compound, the O2 permeability worked out at 4.53 Barrer.

Regarding `*C(=C(*)c1ccc(C[Si](C)(C)C)cc1)c1ccccc1` (repeat unit), the CH4 permeability was 120 Barrer, the CO2 permeability is 640 Barrer, the H2 permeability is 420 Barrer and the N2 permeability amounted to 44 Barrer. Besides, the O2 permeability stood at 140 Barrer.

`*c1ccc2c(-c3c(OC(C)=O)ccc4cc(N5C(=O)c6ccc(Oc7ccc8c(c7)C(=O)N(*)C8=O)cc6C5=O)ccc34)c(OC(C)=O)ccc2c1` (repeat unit): the CH4 permeability was found to be 0.05 Barrer, the CO2 permeability came out at 2.38 Barrer, the H2 permeability amounted to 3.18 Barrer and the N2 permeability was determined as 0.1 Barrer. This compound had an O2 permeability of 0.61 Barrer.

`*CC(*)c1ccc([Si](C)(C)CCCC(F)(F)F)cc1` (repeat unit): the CH4 permeability is 22 Barrer, the CO2 permeability came out at 284 Barrer, the H2 permeability was determined as 109 Barrer and the N2 permeability stood at 11.8 Barrer. In addition, the O2 permeability came out at 38.1 Barrer.

`*c1ccc(Oc2ccc(C3(c4ccc(Oc5ccc(N6C(=O)c7ccc(C(c8ccc9c(c8)C(=O)N(*)C9=O)(C(F)(F)F)C(F)(F)F)cc7C6=O)c(C)c5)cc4)c4ccccc4-c4ccccc43)cc2)cc1C` (repeat unit) registered a CH4 permeability of 0.34 Barrer, a CO2 permeability of 11.7 Barrer, an H2 permeability of 47.3 Barrer and an N2 permeability of 0.73 Barrer. This compound came in with an O2 permeability of 3.62 Barrer.

Compound `*CC(*)c1ccc(Br)cc1` (repeat unit) came in with a CH4 permeability of 0.48 Barrer, a CO2 permeability of 8.5 Barrer, an N2 permeability of 0.32 Barrer and an O2 permeability of 1.9 Barrer.

`*CC(*)C(=O)OCC(F)(F)C(F)(F)C(F)(F)C(F)(F)C(F)(F)C(F)(F)C(F)(F)F` (repeat unit): the CH4 permeability amounted to 57 Barrer, the CO2 permeability stood at 520 Barrer, the H2 permeability stood at 300 Barrer and the N2 permeability was 54 Barrer. The O2 permeability came to 135 Barrer.
